Measured values published in patent US20240350456A1, “COMPOSITIONS AND METHODS FOR DIAGNOSING AND TREATING INFLAMMATORY CONDITIONS” (RUTGERS, THE STATE UNIVERSITY OF NEW JERSEY, priority 2023, published 2024).
“Also recorded” adds a separate entry of the source.

Experiments:
[1] = tested on: human-derived Caco-2 cells; assay: In vitro transwell screening in Caco-2 cells, barrier disrupted by Clostridium difficile toxin (TEER and FITC-dextran permeability); assay type: cell-based; details: applied in the basolateral compartment, TOX
[2] = tested on: leaky gut mouse model (DSS colitis); assay: DSS (3%) leaky gut colitis mouse model, metabolites i.p.; assay type: in vivo
Description: A moderate amount of DSS (3%) creates a leaky gut model.
FIG. 23A, Analysis of plasma ovalbumin levels after oral ovalbumin gavage in mice treated with exogenous MNA or PBS. […] Analysis of fecal lipocalin levels in mice treated with PBS or MNA with or without DSS. […] Representative histology sections of mice treated with PBS or MNA with or without DSS. FIG. 23D, quantification of mouse histology sections scored for colitis index.
FIG. 24A, Analysis of zonula occludens (Tjp1) and occluding (Ocln) mRNA levels after treatment with PBS or MNA with or without DSS. FIG. 24B, Western blot analysis and quantification of Ocln protein levels after treatment with PBS or MNA with or without DSS. FIG. 24C, Quantified levels of occluding in the ileum (top) and colon (bottom) using immunofluorescence antibody staining.
Administration of DSS induces experimental colitis and disrupts gut barrier in vivo in animal models.
Exogenous MNA administration was assessed by plasma ovalbumin levels after oral ovalbumin gavage—an accepted method to determine permeability of the gut paracellular pathway. […] (FIG. 23B) Histology sections of mice treated with or without DSS and PBS or MNA were also obtained. […] Sections from several mice were also examined by a blinded observer and scored for colitis index.
(FIG. 24B) Using immunofluoresce antibody staining, quantified levels of occludin in the ileum and colon were also analyzed.

Caco2 BBE monolayer = assay: TEER of confluent Caco2 BBE monolayer disrupted by luminal DSS, with MNA; assay type: cell-based, human; details: low dose
Method: MNA was applied from Day-5 at different concentrations on the luminal (L) or basolateral (BL) compartments. The monolayer was disrupted by 3% DSS in the luminal side on days 5-8.
Caco2 were provided with MNA at day 0 either luminally (L, mimics oral) or basolaterally (BL, mimics intra-peritoneal) (FIG. 17). Then DSS was added to lumen to disrupt gut barrier in all treatments except control (blue circles).

[3] = tested on: C57BL/6 mice with DSS-induced mild colitis; assay: DSS induced mild colitis treatment with LGG metabolites (2.5% DSS); assay type: in vivo, mouse; details: metabolite i.p. twice
Method: FIG. 13A-13M. IPA requires Ocln to alleviate LPS-induced leaky epithelium. FIG. 13A, experimental design. Organoids were derived from tamoxifen-inducible, intestine-specific Ocln-knockout (KO) mice generated by crossing a floxed Ocln^fl/fl with Villin-CreERT2 mice. FIG. 13B, Representative images and FIG. 13C, quantitative analysis of permeability assay. LPS was added to CCM media (basolateral side) with and without IPA […] and IAM (200 μM) (n=3 mice). *** P<0.001, compared with WT control, †P<0.05 compared with KO-control. FIG. 13D, Representative images of immunofluorescent staining of Ocln in WT control and Ocln KO conventional mice, L=lumen. MNA improves but ASA exacerbates dextran sodium sulfate (DSS)-induced leaky gut. FIG. 13E, experimental design, evaluation in vivo of metabolites (Met). Methylnicotinamide (MNA. […]) and L-argininosuccinate (ASA. 3.6 mg/kg) were administered (i.p.) twice 1-day before and 3 days after DSS treatment p.o. 4 kDa fluorescein isothiocyanate (FITC)-dextran was gavaged 4 h before sacrifice. FIG. 13F, body weight of DSS-treated mice with and without metabolites, FIG. 13G, representative images of Ocln-stained colon sections (green; left panel) and ECad (red; middle). Merged images (yellow; right panel) depict Ocln location in TJ of MNA-treated but not in DSS-only and ASA-treated colon (arrows). Quantitative fluorescent intensity of Ocln (FIG. 13H) and ECad (FIG. 13I) in the TJ, relative to DSS only controls. FIG. 13J, DSS scoring. FIG. 13K, representative H&E images of DSS, DSS+ MNA and DSS+ASA colon sections. FIG. 13L, In vivo permeability as determined by fluorescent intensity of FITC in serum. FIG. 13M, Serum level of interleukin-6.
DSS induced mild colitis treatment with LGG metabolites. To assess in vivo impact of metabolites on gut barrier function, conventional C57BL/6 mice (8 weeks of age) were administered with 2.5% dextran sodium sulfate (DSS) in drinking water to induce mild colitis. Animals were intraperitoneal injected with either PBS vehicle, 30 mg/kg methylnicotinamide chloride, or 3.6 mg/kg argininosuccinic acid dissolved in sterile PBS at Day-1 and Day 4 of the experiment. Body weight was recorded daily. At Day 7, 4 hours before sacrifice and collection of blood, animals were gavaged with 600 mg/kg with 4 kDa FITC-dextran. Blood was collected in 5% EDTA and subsequently centrifuged at 3000 g for 5 minutes for plasma collection. FITC readings were collected by diluting 25 μl of plasma in 75 μl of PBS and analyzed using a Glomax (Promega, GMMTE9032) with Ex490/Em510-570 filter cube module. Serum concentration of interleukin-6 (Cat. No. Biolegend 431304) was also determined. Ileum and colon sections were collected, fixed in 4% paraformaldehyde, processed for embedding in paraffin wax. Pathohistology of intestine was observed by routine H&E staining.

With `NC(=O)Cc1c[nH]c2ccccc12` [Indole-3-acetamide, indole-3-acetamide] the “TEER, indole metabolites” value [1] was “more effective when applied in this compartment than in the luminal”.

For `C[n+]1cccc(C(N)=O)c1` [Methylnicotinamide, 1-methynicotinamide], the “body weight loss and recovery in DSS leaky gut model” value ([2]; 3% DSS, i.p. every other day, listed as MNA) was “dampened then accelerated the recovery of body weight; also recorded: robust and faster recovery”, the “tissue damage in histology sections” value ([2]; DSS-treated animals) was “alleviated” and the fecal lipocalin levels ([2]; MNA-DSS vs PBS-DSS) was “reduced fecal lipocalin”. The “body weight when injected alone” value ([2]; i.p. every other day, no DSS) was “no deleterious effect on body weight”, the “barrier function (plasma ovalbumin after oral ovalbumin gavage), increase vs PBS treated mice” value ([2]; i.p. injection) was 2 fold and the “colitis score (colitis index, blinded observer)” value ([2]; with DSS) was “protected the tissue from damage even with DSS”. The “mRNA levels of Tjp1 and Ocln in the ileum” value ([2]; with DSS) was “increasing the mRNA levels to normal”, the “TEER after DSS barrier disruption” value (Caco2 BBE monolayer) was “prevented barrier disruption” and the “E-cad abundance and localization in colonic epithelial cells” value [3] was “significantly increased”. The “Ocln expression in colonic epithelium” value [3] was “significantly elevated Ocln expression”, the “pathology score (epithelial cell disruption and immune cell infiltration)” value [3] was “improved pathology score” and the “DSS-induced leaky gut (overall)” value ([3]; listed as MNA) was “sealed the leaky gut; also recorded: improves”. For the same compound, the “serum IL-6 level” value ([3]; listed as MNA) was “decreased; also recorded: reduced serum proinflammatory IL-6 levels”.
